In US8163709B2, “TAK1-D mediated induction of cell death in human cancer cells by specific sequence short double-stranded RNAS” (Board of Regents of the University of Texas System, priority 2008, dated 2012):
“Also recorded” adds a separate entry of the source. d = 2'-deoxy (DNA); r = 2'-OH (RNA)

How the values were obtained:
[1] = molecular target: T1, TAK1-D (Homo sapiens, UniProt O43318); experiment: TAK1-D autophosphorylation on T184/T187 in H460 cells (Western blot, phospho-specific antibody); format: cell-based; parameters: endogenous in cells; host or cells: NCI-H460; conditions: for activating autophosphorylation of TAK1-D on T184 and T187: H460, ribotoxins 90 minutes (same concentrations); for activating autophosphorylation (activation) of TAK1-D on T184 and T187: RNA transfected (20 nM), Western blot
T1 sequence (O43318 1-491 isoform O43318-4): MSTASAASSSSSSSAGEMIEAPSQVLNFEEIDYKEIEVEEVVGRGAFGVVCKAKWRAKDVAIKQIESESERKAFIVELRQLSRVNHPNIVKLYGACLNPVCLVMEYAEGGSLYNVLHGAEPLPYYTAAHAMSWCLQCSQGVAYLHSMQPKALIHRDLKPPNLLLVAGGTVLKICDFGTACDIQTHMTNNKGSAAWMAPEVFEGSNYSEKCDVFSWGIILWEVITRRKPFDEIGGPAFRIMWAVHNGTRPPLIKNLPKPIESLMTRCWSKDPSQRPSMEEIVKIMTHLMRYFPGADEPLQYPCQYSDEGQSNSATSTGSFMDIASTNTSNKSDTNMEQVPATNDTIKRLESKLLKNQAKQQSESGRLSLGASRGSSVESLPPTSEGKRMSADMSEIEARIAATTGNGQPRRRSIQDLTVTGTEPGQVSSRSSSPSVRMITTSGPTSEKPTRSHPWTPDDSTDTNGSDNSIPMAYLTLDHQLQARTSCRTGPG
Procedure: In an effort to identify the MAPKKK responsible for the activation of the p38 MAP kinase and SAPK/JNK pathway, several of these kinases were screened for siRNA si5 mediated activation.
Immunoblot analysis. Western blotting was performed exactly as described previously (Kodym et al., 2008b). In addition to the primary antibodies previously mentioned (Kodym et al., 2008b) the following antibodies were used: S6 ribosomal protein (Cell Signaling #2217), DPM1 (Santa Cruz #sc-15836, Santa Cruz, Calif., USA), and Histone H3 (Cell Signaling #9715).

[2] = system: p38 MAP kinase pathway; experiment: Activation of the p38 MAP kinase pathway in H460 cells (Western blot); format: cell-based, human
Text: Both siRNAs were directed against the mRNA of the same gene TLK1.

[3] = system: SAPK/JNK pathway; experiment: Activation of the SAPK/JNK pathway in H460 cells (Western blot); format: cell-based, human; conditions: H460, ribotoxins 90 minutes (same concentrations)
[4] = system: TAK1-A; experiment: Autophosphorylation of the other (long) Tak1 splicing variants in H460 cells; format: cell-based, human; conditions: 10 ng/ml, 30 min
Text: In contrast only the long form (TAK1-A) is able to activate the NFκB pathway through phosphorylation of IKKα/β.

[5] = system: NF-κB; experiment: NF-κB activation in H460 cells (EMSA, IKKα/β phosphorylation); format: cell-based, human; conditions: 10 ng/ml, 30 min, listed as IL1β
Procedure: EMSA. Electrophoretic mobility shift assays for NFκB were performed as described previously (Kurland et al., 2001) using 3.5 μg of nuclear protein for each reaction.
FIG. 16B illustrates the effect of dominant-negative TAK1-D/K63W on dsRNA si5 induced cell death. […] As a slight growth inhibition of si5 transfected H460-K63W cells can be observed in FIG. 16B it is interesting to ask whether this is caused by an incomplete suppression of TAK1-D activity or by activation of other dsRNA-dependent stress pathways. To answer this question, the activation of the transcription factor NF-κB by dsRNA si5 was tested, as it well established that dsRNA triggered activation of PKR (Zamanian-Daryoush et al., 2000), TLR3 (Jiang et al., 2003), and RIG1/Mda-5 (Hiscott et al., 2006) leads to a downstream activation of NF-κB.

[6] = system: TLK1; experiment: TLK1 post-transcriptional silencing in HeLa cells (Western blot); format: cell-based, human; conditions: 48 h after transfection
Procedure: In order to test whether dsRNA molecules show the same cellular uptake and stability the efficiency of these molecules to post-transcriptionally silence the expression of TLK1 was determined as si6 as well as si5 siRNA are directed against the mRNA of this protein. […] As a loading control the unchanged expression levels of TAK1-A/B and 3-tubulin are shown in the two lower panels.

[7] = system: H460 cells; experiment: Survival assay of H460 cells, Crystal Violet staining

## CN(CC[C@H](N)CC(=O)N[C@H]1C=C[C@H](n2ccc(N)nc2=O)O[C@@H]1C(=O)O)C(=N)N [Blasticidin S]
[1]
  activating autophosphorylation of TAK1-D on T184 and T187: No such activation was detectable
[2]
  activating phosphorylations of p38 MAP kinase and its upstream kinases MKK3/6: induced activating phosphorylations; also recorded: induce an activation of p38 MAP kinase and SAPK/JNK
[3]
  activating phosphorylations of SAPK/JNK and its upstream kinase MKK4: induced activating phosphorylations
[3]; listed as blasticidin S
  activating phosphorylations of SAPK/JNK and its upstream kinase MKK4: induce an activation of p38 MAP kinase and SAPK/JNK

## C[C@@H]1C[C@@H]([C@H](O)CC2CC(=O)NC(=O)C2)C(=O)[C@@H](C)C1 [Cycloheximide]
[1]
  activating autophosphorylation of TAK1-D on T184 and T187: No such activation was detectable
[2]
  activating phosphorylations of p38 MAP kinase and its upstream kinases MKK3/6: induced activating phosphorylations; also recorded: induce an activation of p38 MAP kinase and SAPK/JNK
[3]
  activating phosphorylations of SAPK/JNK and its upstream kinase MKK4: induced activating phosphorylations
[3]; listed as cycloheximide
  activating phosphorylations of SAPK/JNK and its upstream kinase MKK4: induce an activation of p38 MAP kinase and SAPK/JNK

## CN[C@@H]1[C@@H](O)[C@@H](O[C@@H]2[C@@H](O)[C@H](O[C@H]3O[C@H]([C@@H](C)O)[C@@H](O)[C@H](O)[C@H]3N)[C@@H](N)C[C@H]2N)OC[C@]1(C)O [G418]
[2]
  activating phosphorylations of p38 MAP kinase and its upstream kinases MKK3/6: exception
[3]
  activating phosphorylations of SAPK/JNK and its upstream kinase MKK4: exception

## COc1ccc(C[C@H](N)C(=O)N[C@H]2[C@@H](O)[C@H](n3cnc4c(N(C)C)ncnc43)O[C@@H]2CO)cc1 [Puromycin, reference compound]
[1]
  activating autophosphorylation of TAK1-D on T184 and T187: led to an activating autophosphorylation of TAK1-D
[1]; listed as puromycin
  activating autophosphorylation of TAK1-D on T184 and T187: induce an activating TAK1-D phosphorylation
[2]
  activating phosphorylations of p38 MAP kinase and its upstream kinases MKK3/6: induced activating phosphorylations
[3]
  activating phosphorylations of SAPK/JNK and its upstream kinase MKK4: induced activating phosphorylations

## AU: dsRNA with alternating A and U bases (control, SEQ ID NO:21 and 22) (chain 1 AUAUAUAUAUAUAUAUAUATT; chain 2 TTUAUAUAUAUAUAUAUAUAU; chemistry not given here) [reference compound]
[1]; H460 cells
  activating autophosphorylation (activation) of TAK1-D on T184 and T187: does not activate the TAK1-D pathway

## IL1: interleukin 1, positive control activating the long TAK1 variant via IL-1 receptor
[1]; H460 cells, 10 ng/ml IL-1
  activation of TAK1-D: does not activate TAK1-D
[4]
  autophosphorylation of the long splicing variant of Tak1: autophosphorylation of the large splicing variant of Tak1 (A and B)
[4]; listed as IL1β
  autophosphorylation of the long splicing variant of Tak1: activates exclusively the long form of TAK1 (TAK1-A)
[2]; H460 cells, 10 ng/ml IL1
  activation of the p38 MAP kinase pathway (MKK3/6): activating the p38 MAP kinase pathway (MKK3/6)
[5]
  activation of the NFκB cascade (IKKα/β phosphorylation): activates the NFκB pathway

## OmeD: si5 sequence with 2′-O-methyl on both strands (SEQ ID NO:23 and 24) (chain 1 GGCUUUUGACCUUUAUGAAUU; chain 2 UUCCGAAAACUGGAAAUACUU; siRNA; 2'-O-methyl at dot-marked bases on both strands, pattern not given here; one strand is listed 3' to 5')
[1]; H460 cells
  activating autophosphorylation (activation) of TAK1-D on T184 and T187: no activation of Tak1-D could be detected
[6]
  expression level of TLK1: very significant reduction in the expression of TLK1

## OmeS: si5 sequence with several bases of the sense strand 2′-O-methyl modified (SEQ ID NO:25 and 26) (chain 1 GGCUUUUGACCUUUAUGAAUU; chain 2 TTCCGAAAACUGGAAAUACUU; 2'-O-methyl on sense strand bases, chemistry not fully specified; one strand is listed 3' to 5')
[6]
  expression level of TLK1: very significant reduction in the expression of TLK1

## shRNA: short hairpin RNA containing the si5 sequence, in vitro transcribed with T7 RNA polymerase (SEQ ID NO:20) (GGCUUUUGACCUUUAUGAAUUAAUUCAUAAAGGUCAAAAGCC; siRNA; RNA, phosphodiester; hairpin)
[7]; H460, 48 hours after transfection, shRNA experiment
  cell death, crystal violet: led to cell death

## si5OMeA: si5 sequence with U and G 2′-O-methylated in the antisense strand only (SEQ ID NO:27 and 28) (chain 1 GGCUUUUGACCUUUAUGAATT; chain 2 UUCCGAAAACUGGAAAUACUU; 2'-O-methyl U and G in antisense strand, chemistry not fully specified; one strand is listed 3' to 5')
[6]
  expression level of TLK1: very significant reduction in the expression of TLK1

## si5d: si5 with one U of the homopolymeric stretch changed to a C (SEQ ID NO:19) (GGCUUCUGACCUUUAUGAATT; siRNA; sugars from the 5' end r19 d2, backbone not given here)
[1]; H460 cells
  activating autophosphorylation (activation) of TAK1-D on T184 and T187: significantly reduced the capacity of the molecule to activate TAK1-D
[6]
  expression level of TLK1: very significant reduction in the expression of TLK1

## si5l: si5 extended by adding 2 ribonucleotides (SEQ ID NO:18) (GGCUUUUGACCUGUUUAUGAATT; siRNA; sugars from the 5' end r21 d2, backbone not given here)
[1]; H460 cells
  activating autophosphorylation (activation) of TAK1-D on T184 and T187: significantly reduced its activity
[2]; H460 cells, 20 nM RNA, 2-6 h
  activation of the p38 MAP kinase pathway (phosphorylation of MKK3/6, p38 MAPK): small activation of Tak1-D and p38 MAPK could still be observed
[6]
  expression level of TLK1: lack of post-transcriptional silencing of TLK1

## si5s: si5 with two ribonucleotides in the middle of the molecule deleted (SEQ ID NO:17) (GGCUUUUGACUUAUGAATT; siRNA; sugars from the 5' end r17 d2, backbone not given here)
[1]; H460 cells
  activating autophosphorylation (activation) of TAK1-D on T184 and T187: completely abolished its ability to activate Tak1-D
[6]
  expression level of TLK1: lack of post-transcriptional silencing of TLK1

## si6: control 21-mer siRNA against TLK1 mRNA: GGGUGGAAAUGGCUCAAGUtt (SEQ ID NO: 4) / gtCCCACCUUUACCGAGUUCA (SEQ ID NO: 5) (sense GGGUGGAAAUGGCUCAAGUTT; antisense GTCCCACCUUUACCGAGUUCA; Artificial primer) [reference compound]
[7]; H460, concentration range tested (up to 20 nM), 48 h
  cytotoxicity, Crystal Violet: does not show any significant cytotoxicity
